{"source": "patent US4287206A", "about": "“Halogen derivatives of 8-hydroxycarboxylic acids; the processes for their preparation and medicaments in which they are present” (priority 1978, dated 1981)", "key": {"rats [1]": {"test_system": "rats", "test": "Influence of pimozide on the stereotypies caused in rats", "type": "in vivo", "experimental": "(§1) The tests were carried out on batches of 6 rats for each dose; immediately after the oral or intraperitoneal administration, the animals are placed in individual, transparent plastic 20×10×10 cm boxes provided with a pierced stainless steel lid. The stereotyped movements are rated from 0 to 3, in accordance with the method described by Simon and Chermat (J. Pharmacol. (Paris), 1972, 3, 235-238) every 10 minutes until they disappear in all the animals. The detailed curves are plotted and the surface area of the curve is calculated as described in the above reference.\nResearch into the antagonistic effects of the stereotypies caused in rats by the medicament according to the invention\n(a) Influence of pimozide\nAt time 0, pimozide (1 mg.kg^-1) or distilled water is administered intraperitoneally; after 30 minutes, all the animals receive, by intraperitoneal administration, the medicament according to the invention, obtained in accordance with Example III (8 mg.kg^-1). The stereotypies are assessed as described above. The surface area of the curve of the stereotypies is calculated."}, "mice [2]": {"test_system": "mice", "test": "Motor activity in mice (activity meters with photoelectric cells)", "type": "in vivo", "conditions": "comparison of isomers; 32 mg/kg administered orally; schematic grades; listed as α diastereoisomer, 32 mg/kg", "experimental": "The motor activity was determined with the aid of activity meters having photoelectric cells (Boissier and Simon, Arch. int. Pharmacodyn. 1965, 158, 212-221). A minimum of 10 animals was always used per batch.\nThe mice are placed in the activity meter just after the oral or intraperitoneal administration of the product acccording to the invention, obtained in accordance with Example I. The motor activity is measured as from the introduction into the activity meter up to the 60th minute. The counters are read after 30 minutes, then reset to 0 and read every 10 minutes for 30 minutes."}, "rats [3]": {"test_system": "rats", "test": "Influence of alpha-methyltyrosine on the stereotypies caused in rats", "type": "in vivo", "experimental": "as §1\n(b) Influence of alpha-methyltyrosine\nAt time 0, the animals receive, by intraperitoneal administration, either distilled water or alphamethyltyrosine at a dose of 64 mg.kg^-1; after 150 minutes, they receive, by intraperitoneal administration, the medicament according to the invention, obtained in accordance with Example III, at a dose of 8 mg.kg^-1.\nThe animals are observed under the conditions described above in the study of the stereotypies in rats."}, "mice [4]": {"test_system": "mice", "test": "Anti-apomorphine activity in mice (hypothermia caused by apomorphine)", "type": "in vivo", "conditions": "comparison of isomers; 32 mg/kg administered orally; schematic grades; listed as α diastereoisomer, 32 mg/kg"}, "mice [5]": {"test_system": "mice", "test": "Anti-reserpine activity in mice (reserpine hypothermia)", "type": "in vivo", "conditions": "for Rectal temperatures °C. ± SD: Table IIb, reserpine 2.5 mg.kg^-1 i.p. 4 h before", "experimental": "Anti-reserpine activity in mice\nAt time 0, the mice receive reserpine (2.5 mg.kg^-1) by intraperitoneal administration.\nAfter 4 hours, when the hypothermia is significant (30 to 31°C.), the substance to be studied is administered intraperitoneally or orally. The rectal temperature is measured, using a probe, carrying a thermoelectric couple, inserted to a constant depth, every 30 minutes for 2 hours."}, "rats [6]": {"test_system": "rats", "test": "Study of the stereotypies in rats", "type": "in vivo", "conditions": "comparison of isomers, 32 mg/kg administered orally, schematic grades, 32 mg/kg", "experimental": "Study of the stereotypies in rats\nas §1"}, "[7]": {"test": "Determination of the acute toxicity to mice (BEHRENS and KARBER)", "conditions": "mouse, in vivo", "experimental": "All the experiments reported below were carried out on male rats having a weight of between 170 and 220 g (Wistar AF strain) and male mice having a weight of between 18 and 23 g (Swiss NMRI strain), unless otherwise stated in the following text.\nDetermination of the acute toxicity to mice\nMethod used: BEHRENS and KARBER"}, "mice [8]": {"test_system": "mice", "test": "Action on the toxicity of yohimbine to mice", "type": "in vivo", "conditions": "Table Vb, yohimbine hydrochloride 25 mg.kg^-1 s.c.", "experimental": "Action on the toxicity of yohimbine to mice\nAt time 0, the mice receive, by oral administration, either distilled water or the medicament according to the invention; after 30 minutes, yohimbine hydrochloride (25 mg.kg^-1) is administered subcutaneously to the mice. The mortality is followed every hour for 4 hours and then recorded after 24 hours."}}, "note": "Structures can show the parent of a compound that is named as a salt. Where two headings read alike, the source gives them in different places."}
{"smiles": "CC1CC(c2ccc(Cl)cc2)C(c2ccccc2)C(=O)O1", "note": "(stereo not drawn) [Example III, Trans-4-(4'-chlorophenyl)-6-methyl-3-phenyl-3,4,5,6-tetrahydropyrone-2, IIIα]", "values": [{"measurement": "surface area of the curve of the stereotypies, medicament by itself", "setting": "rats [1]; 8 mg.kg^-1 intraperitoneal", "result": 63}, {"measurement": "surface area of the curve of the stereotypies, medicament administered after pimozide", "setting": "rats [1]; 8 mg.kg^-1 intraperitoneal, 30 min after pimozide 1 mg.kg^-1 intraperitoneal", "result": 17}, {"measurement": "Increase in the motor activity in mice", "setting": "mice [2]", "result": "less significant"}, {"measurement": "surface area of the curve of the stereotypies, medicament by itself", "setting": "rats [3]; 8 mg.kg^-1 intraperitoneal", "result": 63}, {"measurement": "surface area of the curve of the stereotypies, medicament + alpha-methyltyrosine", "setting": "rats [3]; 8 mg.kg^-1 intraperitoneal, 150 min after alpha-methyltyrosine 64 mg.kg^-1 intraperitoneal", "result": 60.8}, {"measurement": "Anti-apomorphine action", "setting": "mice [4]", "result": "persists"}, {"measurement": "Anti-reserpine action", "setting": "mice [5]; comparison of isomers, 32 mg/kg administered orally, schematic grades, listed as α diastereoisomer, 32 mg/kg", "result": "less significant"}, {"measurement": "Stereotypy-forming action on rats", "setting": "rats [6]; listed as 100% of α", "result": 0}, {"measurement": "Stereotypy-forming action on rats", "setting": "rats [6]; listed as α diastereoisomer", "result": "virtually disappears"}]}
{"smiles": "C[C@](N)(Cc1ccc(O)cc1)C(=O)O", "note": "[alpha-methyltyrosine, reference compound]", "values": [{"measurement": "effect of pre-treatment with alpha-methyltyrosine on the stereotypies caused by the medicament", "setting": "rats [3]; alpha-methyltyrosine 64 mg.kg^-1 i.p. 150 min before Example III 8 mg.kg^-1 i.p.", "result": "virtually unmodified"}]}
{"smiles": "O=c1[nH]c2ccccc2n1C1CCN(CCCC(c2ccc(F)cc2)c2ccc(F)cc2)CC1", "note": "[pimozide, reference compound]", "values": [{"measurement": "effect of pimozide on the stereotypies caused by the medicament", "setting": "rats [1]; pimozide 1 mg.kg^-1 i.p. 30 min before Example III 8 mg.kg^-1 i.p.", "result": "very significantly antagonizes the stereotypies"}]}
{"smiles": "CC(O)CC(c1ccc(Cl)cc1)C(C(=O)O)c1ccccc1", "note": "(stereo not drawn) [product IV, sodium salt of 3-(4'-chlorophenyl)-5-hydroxy-2-phenylhexanoic acid]", "values": [{"measurement": "LD50", "setting": "[7]; ip, intraperitoneal, read-out: LD50 (intraperitoneal administration)", "result": 160, "unit": "mg/kg"}, {"measurement": "LD50", "setting": "[7]; oral, read-out: LD50 (oral administration)", "result": 310, "unit": "mg/kg"}, {"measurement": "Mortality in % after the administration of yohimbine", "setting": "mice [8]; 2 mg/kg administered orally, 4 hours", "result": 10, "unit": "%"}, {"measurement": "Mortality in % after the administration of yohimbine", "setting": "mice [8]; 2 mg/kg administered orally, 24 hours", "result": 10, "unit": "%"}, {"measurement": "Mortality in % after the administration of yohimbine", "setting": "mice [8]; 4 mg/kg administered orally, 4 hours", "result": 20, "unit": "%"}, {"measurement": "Mortality in % after the administration of yohimbine", "setting": "mice [8]; 4 mg/kg administered orally, 24 hours", "result": 20, "unit": "%"}, {"measurement": "Mortality in % after the administration of yohimbine", "setting": "mice [8]; 8 mg/kg administered orally, 4 hours", "result": 30, "unit": "%"}, {"measurement": "Mortality in % after the administration of yohimbine", "setting": "mice [8]; 8 mg/kg administered orally, 24 hours", "result": 30, "unit": "%"}, {"measurement": "Mortality in % after the administration of yohimbine", "setting": "mice [8]; 16 mg/kg administered orally, 4 hours", "result": 70, "unit": "%"}, {"measurement": "Mortality in % after the administration of yohimbine", "setting": "mice [8]; 16 mg/kg administered orally, 24 hours", "result": 70, "unit": "%"}, {"measurement": "Mortality in % after the administration of yohimbine", "setting": "mice [8]; 32 mg/kg administered orally, 4 hours", "result": 80, "unit": "%"}, {"measurement": "Mortality in % after the administration of yohimbine", "setting": "mice [8]; 32 mg/kg administered orally, 24 hours", "result": 80, "unit": "%"}, {"measurement": "Mortality in % after the administration of yohimbine", "setting": "mice [8]; 64 mg/kg administered orally, 4 hours", "result": 100, "unit": "%"}, {"measurement": "Mortality in % after the administration of yohimbine", "setting": "mice [8]; 64 mg/kg administered orally, 24 hours", "result": 100, "unit": "%"}, {"measurement": "Mortality in % after the administration of yohimbine", "setting": "mice [8]; 128 mg/kg administered orally, 4 hours", "result": 80, "unit": "%"}, {"measurement": "Mortality in % after the administration of yohimbine", "setting": "mice [8]; 128 mg/kg administered orally, 24 hours", "result": 80, "unit": "%"}, {"measurement": "Mortality in % after the administration of yohimbine", "setting": "mice [8]; 256 mg/kg administered orally, 4 hours", "result": 100, "unit": "%"}, {"measurement": "Mortality in % after the administration of yohimbine", "setting": "mice [8]; 256 mg/kg administered orally, 24 hours", "result": 100, "unit": "%"}, {"measurement": "Rectal temperatures °C. ± SD", "setting": "mice [5]; 8 mg/kg oral, 30 min", "result": "30.9 ± 0.36", "unit": "°C"}, {"measurement": "Rectal temperatures °C. ± SD", "setting": "mice [5]; 8 mg/kg oral, 60 min", "result": "32.0 ± 0.56", "unit": "°C"}, {"measurement": "Rectal temperatures °C. ± SD", "setting": "mice [5]; 8 mg/kg oral, 90 min", "result": "32.2 ± 0.57", "unit": "°C"}, {"measurement": "Rectal temperatures °C. ± SD", "setting": "mice [5]; 8 mg/kg oral, 120 min", "result": "33.2 ± 0.56", "unit": "°C"}, {"measurement": "Rectal temperatures °C. ± SD", "setting": "mice [5]; 16 mg/kg oral, 30 min", "result": "31.1 ± 0.39", "unit": "°C"}, {"measurement": "Rectal temperatures °C. ± SD", "setting": "mice [5]; 16 mg/kg oral, 60 min", "result": "32.5 ± 0.60", "unit": "°C"}, {"measurement": "Rectal temperatures °C. ± SD", "setting": "mice [5]; 16 mg/kg oral, 90 min", "result": "32.7 ± 0.51", "unit": "°C"}, {"measurement": "Rectal temperatures °C. ± SD", "setting": "mice [5]; 16 mg/kg oral, 120 min", "result": "33.1 ± 0.43", "unit": "°C"}, {"measurement": "Rectal temperatures °C. ± SD", "setting": "mice [5]; 32 mg/kg oral, 30 min", "result": "31.3 ± 0.31", "unit": "°C"}, {"measurement": "Rectal temperatures °C. ± SD", "setting": "mice [5]; 32 mg/kg oral, 60 min", "result": "33.0 ± 0.44", "unit": "°C"}, {"measurement": "Rectal temperatures °C. ± SD", "setting": "mice [5]; 32 mg/kg oral, 90 min", "result": "33.7 ± 0.41", "unit": "°C"}, {"measurement": "Rectal temperatures °C. ± SD", "setting": "mice [5]; 32 mg/kg oral, 120 min", "result": "33.2 ± 0.38", "unit": "°C"}, {"measurement": "Rectal temperatures °C. ± SD", "setting": "mice [5]; 64 mg/kg oral, 30 min", "result": "32.8 ± 0.40", "unit": "°C"}, {"measurement": "Rectal temperatures °C. ± SD", "setting": "mice [5]; 64 mg/kg oral, 60 min", "result": "34.3 ± 0.32", "unit": "°C"}, {"measurement": "Rectal temperatures °C. ± SD", "setting": "mice [5]; 64 mg/kg oral, 90 min", "result": "34.5 ± 0.38", "unit": "°C"}, {"measurement": "Rectal temperatures °C. ± SD", "setting": "mice [5]; 64 mg/kg oral, 120 min", "result": "34.4 ± 0.41", "unit": "°C"}]}
